Laboratory results as given in US20050171211A1, “Gingerol analogues and use thereof” (priority 2002, published 2005).
Like-named read-outs stand apart in the source and are kept apart here.

What was measured:
[1] = Test about scavenging DPPH radical; conditions: final concentration 10 μg/mL; for Ratio of scavenging DPPH radical: 20 minutes, darkness, ambient temperature, absorbance at 517 nm
Protocol: Concerning radical-scavenging activity, a stable radical DPPH (1,1-diphenyl-2-picrylhydrazyl) was used for assaying the radical-scavenging activities of test compounds [the compound of the formula (11) and the compound of the formula (12) and a control sample dl-α-tocopherol (manufactured by Tokyo Kasei Kogyo Co., Ltd.)]. The assay method is as follows. Tris below is an acronym of tris(hydroxymethyl)aminomethane and M represents the concentration unit Mol/L.
1 ml of 200 μM DPPH solution in ethanol was added to 800 μl of 100 mM Tris-HCl buffer, pH 7.4 and 200 μl of a test compound solution in ethanol (to a final concentration of 10 μg/mL), for sufficient agitation. After the resulting mixture was left to stand alone in darkness at ambient temperature for 20 minutes, the absorbance at 517 nm was measured (absorbance of the test solutions).
Meanwhile, 800 μl of 100 mM Tris-HCl buffer, pH 7.4, 200 μl of ethanol and 1 ml of 200 μM DPPH solution in ethanol were used for the same procedures as described above to measure the absorbance to obtain the absorbance of the blank.
The individual test compounds and the blank were repeatedly treated by the same procedures three times, and the mean of the resulting absorbance values was inserted in the following formula, to calculate the ratio of scavenging DPPH radical. Ratio of scavenging DPPH radical (%)={1-(absorbance of sample solution/absorbance of blank solution)}×100

[2] = Test about suppression of lipid peroxide generation in linoleic acid
Protocol: Using the compound of the formula (11) as obtained in Example 1 and the compound of the formula (12) as obtained in Example 2, a test about the suppression of lipid peroxide generation in linoleic acid was done. Along with the compounds, dl-α-tocopherol (manufactured by Tokyo Kasei Kogyo Co., Ltd.) was tested similarly, to obtain control data.
The test procedures are as follows. As a test result, the ratio of residual linoleic acid by the following procedure (3) is described in Table 1.
(1) After ethanol (2.0 g ) was added to linoleic acid (0.2 g; manufactured by Tokyo Kasei Kogyo Co., Ltd.), a test compound (0.01 g) and a surface active agent Nissan OT-221 (0.4 g; manufactured by NOF Corporation) placed in a 50-ml screw vial, for dissolution, distilled water (17.39 g) was added to the resulting solution for agitation, and was then sealed and left to stand alone in a thermostat at 40° C. Such sample was prepared in a duplex manner.
A blank test with no test compound added was similarly done.
(2) The amount of remaining linoleic acid one week, 2 weeks, 3 weeks and 4 weeks after the start of the test was assayed by HPLC.
The HPLC analytical conditions were as follows. Wavelength for detection: 210 nm. Mobile phase: a mixture solution of a disodium hydrogen phosphate-phosphate buffer adjusted to pH 2.5 and methanol (10:90). Flow: 1 ml/min. Column: ODS-8OTs (4.6 Φmm×150 mm). Column temperature at 40° C.
(3) Each sample was assayed by HPLC two times. The ratio of remaining linoleic acid was calculated on the basis of the mean of four assay values.

mushroom tyrosinase = test: Test about the inhibition of tyrosinase activity using L-dopa as substrate; assay type: biochemical; conditions: 0.27 or 0.54 μmol in 3 ml enzyme reaction solution, 25° C.
Protocol: Using the compound of the formula (11) obtained in Example 1, a test about the inhibition of tyrosinase activity using L-dopa as substrate was done. The same test was done about arbutin (manufactured by Tokyo Kasei Kogyo Co., Ltd.), to get control data. The test procedures are as follows. […]
(2) 0.10 ml of an enzyme solution prepared by dissolving 3.0 mg (2400 units; manufactured by Sigma Corporation) of mushroom tyrosinase in 7.0 ml of distilled water was added to the solution prepared in (1), for agitation for 15 seconds. The resulting solution was retained at 25° C., to measure the absorbance at 475 nm one minute-45 seconds later and 2 minute- 45 seconds later.
(3) The test procedures above in (1) and (2) were conducted three times for the individual test compounds and blank test (only dimethylsulfoxide), and the resulting mean was inserted in the following calculation formula to determine the ratio (%) of the inhibition of tyrosinase activity. Ratio of inhibition of tyrosinase activity (%)=[(T^1-T^2)/T^1]×100 T^1=difference in absorbance of blank solution between 2 minute-45 seconds later and one minute-45 seconds later T^2=difference in absorbance of solution with addition of test compound between 2 minute-45 seconds later and one minute-45 seconds later

| ratio of remaining linoleic acid ([2]; 2 weeks later, 40° C., 0.01 g test compound, 0.2 g linoleic acid, HPLC) [%] | ratio of remaining linoleic acid ([2]; 3 weeks later, 40° C., 0.01 g test compound, 0.2 g linoleic acid, HPLC) [%] | ratio of remaining linoleic acid ([2]; 4 weeks later, 40° C., 0.01 g test compound, 0.2 g linoleic acid, HPLC) [%] | ratio of remaining linoleic acid ([2]; one week later, 40° C., 0.01 g test compound, 0.2 g linoleic acid, HPLC) [%] | ratio of remaining linoleic acid [2] [%] | inhibition of tyrosinase activity compared with arbutin (FIG. 1) (mushroom tyrosinase) | Structure (SMILES) | Ratio of scavenging DPPH radical [1] [%] | ability of scavenging radical compared with dl-α-tocopherol [1] |
| --- | --- | --- | --- | --- | --- | --- | --- | --- |
| 73.2 | 62.6 | 57.3 | 83.6 |  |  | Cc1c(C)c2c(c(C)c1O)CCC(C)(CCCC(C)CCCC(C)CCCC(C)C)O2 (racemic) [Tocopherol, dl-α-tocopherol] | 26.7 |  |
|  |  |  |  | 90.5 | superior to that of arbutin | CCCCCC(CC(=O)CCc1ccc(O)c(OC)c1)OC (stereo not drawn) [Compound of formula (11)] | 35.1 | higher levels than that of dl-α-tocopherol |
|  |  |  |  | 89.2 |  | CCCCCC(CC(O)CCc1ccc(O)c(OC)c1)OC (stereo not drawn) [Compound of formula (12)] | 40.0 | higher levels than that of dl-α-tocopherol |
